# pIC50: −log10 of the molar value. Non-standard residues stand in square brackets, D forms with d. Residues, ends and D or L forms follow the SMILES beside them. Phe(4-Cl) = N[C@@H](Cc1ccc(Cl)cc1)C(=O)O; Phe(4-F) = N[C@@H](Cc1ccc(F)cc1)C(=O)O; 3Pal = N[C@@H](Cc1cccnc1)C(=O)O; 2Thi = N[C@@H](Cc1cccs1)C(=O)O; dNMeV = CN[C@@H](C(=O)O)C(C)C; Tle = CC(C)(C)[C@H](N)C(=O)O; dPip = O=C(O)[C@H]1CCCCN1; NMeA = CN[C@@H](C)C(=O)O; Nme = COCCNCC(=O)O
# Biological target: T1, Human MDM2 (HDM2) 1-116 (Homo sapiens, UniProt Q00987)
# T1 construct: Human MDM2 (HDM2) 1-116
# Test: Fluorescence polarization assay, MDM2/p53 (Table 3)
# Type: binding
# Experimental: (§1) Human MDM2 (HDM2) 1-116 (20 μL) and FITC-labeled p53 (18-26), 50 nM and 10 nM respectively in 10 mM Tris, 50 mM NaCl, 0.01% Tween20, and 1 mM DTT at pH 7.4 were dispensed into an opaque, black, 384 well plate. Compounds dissolved in DMSO were pin transferred (˜200 nL) to the 384 well plate containing the MDM2/p53 solution. After incubation for 10 minutes, the fluorescence polarization was read on a Molecular Devices SpectraMax plate reader equipped with a Fluorescein FP cartridge. In addition to probe alone (positive control) and probe/MDM2 (negative control), a titration of linear p53(18-26) was included on every plate as an additional control. IC50 values were fit using either Prism or Collaborative Drug Discovery.
# as §1, with “and FAM-labeled RFMDYWEGL-NH2,” for “and FITC-labeled p53 (18-26),”, “NaCl, 0.010%” for “NaCl, 0.01%”, “transferred (˜100-200” for “transferred (˜200”, “for 60” for “for 10”
# T1 sequence (Q00987 1-116): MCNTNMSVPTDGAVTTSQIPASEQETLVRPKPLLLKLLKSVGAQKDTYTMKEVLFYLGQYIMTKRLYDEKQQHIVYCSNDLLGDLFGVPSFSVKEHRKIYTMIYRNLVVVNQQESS
row,SMILES,pIC50
1,"COCCN1CC(=O)N(C)[C@@H](C)C(=O)N[C@@H](Cc2ccc(F)cc2)C(=O)N(C)[C@@H](C)C(=O)N[C@@H](Cc2ccc(Cl)cc2)C(=O)N(C)[C@H](C(C)C)C(=O)N2CCC[C@H]2C(=O)N[C@@H](Cc2ccccc2)C(=O)N[C@@H](C(C)(C)C)C(=O)N[C@@H](Cc2ccc(O)cc2)C1=O [Compound 14, [H]Oc1ccc(C[C@@H]2NC(=O)[C@@H](NC(=O)[C@H](Cc3ccccc3)NC(=O)[C@@H]3CCCN3C(=O)[C@@H](C(C)C)N(C)C(=O)[C@H](Cc3ccc(Cl)cc3)NC(=O)[C@H](C)N(C)C(=O)[C@H](Cc3ccc(F)cc3)NC(=O)[C@H](C)N(C)C(=O)CN(CCOC)C2=O)C(C)(C)C)cc1] (cyclo(F[Tle]Y[Nme][NMeA][Phe(4-F)][NMeA][Phe(4-Cl)][dNMeV]P))",5.60 to 6.00
2,"C[C@H]1C(=O)N[C@@H](Cc2ccc(Cl)cc2)C(=O)N2CCCC[C@@H]2C(=O)N2CCC[C@H]2C(=O)N[C@@H](Cc2cccnc2)C(=O)N[C@@H](CCC(=O)O)C(=O)N[C@@H](Cc2ccc(O)cc2)C(=O)N2CCC[C@@H]2C(=O)N(C)[C@@H](C)C(=O)N[C@@H](Cc2ccc(F)cc2)C(=O)N1C [Compound 16, [H]OC(=O)CC[C@@H]1NC(=O)[C@H](Cc2cccnc2)NC(=O)[C@@H]2CCCN2C(=O)[C@H]2CCCCN2C(=O)[C@H](Cc2ccc(Cl)cc2)NC(=O)[C@H](C)N(C)C(=O)[C@H](Cc2ccc(F)cc2)NC(=O)[C@H](C)N(C)C(=O)[C@H]2CCCN2C(=O)[C@H](Cc2ccc(O[H])cc2)NC1=O] (cyclo([3Pal]EY[dP][NMeA][Phe(4-F)][NMeA][Phe(4-Cl)][dPip]P))",> 6.00

# Other lines, results leading:
row,pIC50,SMILES
1,5.60 to 6.00,"C[C@H]1C(=O)N[C@@H](Cc2ccc(Cl)cc2)C(=O)N2CCCC[C@@H]2C(=O)N2CCC[C@H]2C(=O)N[C@@H](Cc2ccc(O)cc2)C(=O)N[C@@H](CCC(=O)O)C(=O)N[C@@H](Cc2cccnc2)C(=O)N2CCC[C@@H]2C(=O)N(C)[C@@H](C)C(=O)N[C@@H](Cc2ccc(F)cc2)C(=O)N1C [Compound 15, [H]OC(=O)CC[C@@H]1NC(=O)[C@H](Cc2ccc(O[H])cc2)NC(=O)[C@@H]2CCCN2C(=O)[C@H]2CCCCN2C(=O)[C@H](Cc2ccc(Cl)cc2)NC(=O)[C@H](C)N(C)C(=O)[C@H](Cc2ccc(F)cc2)NC(=O)[C@H](C)N(C)C(=O)[C@H]2CCCN2C(=O)[C@H](Cc2cccnc2)NC1=O] (cyclo([3Pal][dP][NMeA][Phe(4-F)][NMeA][Phe(4-Cl)][dPip]PYE))"
2,> 6.00,"COCCN1CC(=O)N(C)[C@@H](C)C(=O)N[C@@H](Cc2ccc(F)cc2)C(=O)N(C)[C@@H](C)C(=O)N[C@@H](Cc2ccc(Cl)cc2)C(=O)N(C)[C@H](C(C)C)C(=O)N2CCC[C@H]2C(=O)N[C@@H](Cc2cccs2)C(=O)N[C@@H](C(C)(C)C)C(=O)N[C@@H](Cc2cccnc2)C1=O [Compound 17, COCCN1CC(=O)N(C)[C@@H](C)C(=O)N[C@@H](Cc2ccc(F)cc2)C(=O)N(C)[C@@H](C)C(=O)N[C@@H](Cc2ccc(Cl)cc2)C(=O)N(C)[C@H](C(C)C)C(=O)N2CCC[C@H]2C(=O)N[C@@H](Cc2cccs2)C(=O)N[C@H](C(=O)N[C@@H](Cc2cccnc2)C1=O)C(C)(C)C] (cyclo([2Thi][Tle][3Pal][Nme][NMeA][Phe(4-F)][NMeA][Phe(4-Cl)][dNMeV]P))"
3,> 6.00,"COCCN1CC(=O)N[C@@H](Cc2ccc(Cl)cc2)C(=O)N2CCCC[C@@H]2C(=O)N2CCC[C@H]2C(=O)N[C@@H](Cc2ccccc2)C(=O)N[C@@H](C(C)(C)C)C(=O)N[C@@H](Cc2cccnc2)C(=O)N2CCC[C@@H]2C(=O)N(C)[C@@H](C)C(=O)N[C@@H](Cc2ccc(F)cc2)C1=O [Compound 18, COCCN1CC(=O)N[C@@H](Cc2ccc(Cl)cc2)C(=O)N2CCCC[C@@H]2C(=O)N2CCC[C@H]2C(=O)N[C@@H](Cc2ccccc2)C(=O)N[C@H](C(=O)N[C@@H](Cc2cccnc2)C(=O)N2CCC[C@@H]2C(=O)N(C)[C@@H](C)C(=O)N[C@@H](Cc2ccc(F)cc2)C1=O)C(C)(C)C] (cyclo([3Pal][dP][NMeA][Phe(4-F)][Nme][Phe(4-Cl)][dPip]PF[Tle]))"

# Source: US20220411471A1, “CELL-PERMEABLE CYCLIC PEPTIDES AND USES THEREOF” (Unnatural Products Inc., priority 2019, published 2022)
